Experimental data taken from the NIST ThermoML archive (doi:10.1021/acs.jced.7b00654).
± gives the expanded uncertainty stated by the source.

Experiments:
[1] = 96.7 kPa, Vibrating tube method
[2] = xn = mol fraction of the nth substance listed; conditions: 96.7 kPa, Liquid, Vibrating tube method

SMILES	mass density ([2]; 303.15 K, x2 = 0) [kg/m3]	mass density ([2]; 308.15 K, x2 = 0) [kg/m3]	mass density ([2]; 313.15 K, x2 = 0) [kg/m3]	mass density ([2]; 318.15 K, x2 = 0) [kg/m3]	mass density ([2]; 323.15 K, x2 = 0) [kg/m3]	mass density ([2]; 328.15 K, x2 = 0) [kg/m3]	mass density ([2]; 333.15 K, x2 = 0) [kg/m3]	mass density ([2]; 338.15 K, x2 = 0) [kg/m3]	mass density ([2]; 343.15 K, x2 = 0) [kg/m3]	mass density ([2]; 348.15 K, x2 = 0) [kg/m3]	mass density ([2]; 353.15 K, x2 = 0) [kg/m3]	also measured
CCCCn1cc[n+](C)c1.[Cl-] [1-butyl-3-methylimidazolium chloride]	–	–	–	–	–	–	–	–	–	–	–	mass density ([1]; 303.15 K, Metastable liquid): 1079.41 ± 2.3 kg/m3; mass density ([1]; 308.15 K, Metastable liquid): 1076.58 ± 2.3 kg/m3; mass density ([1]; 313.15 K, Metastable liquid): 1073.78 ± 2.3 kg/m3; mass density ([1]; 318.15 K, Metastable liquid): 1070.99 ± 2.3 kg/m3; mass density ([1]; 323.15 K, Metastable liquid): 1068.19 ± 2.3 kg/m3; mass density ([1]; 328.15 K, Metastable liquid): 1065.36 ± 2.3 kg/m3; mass density ([1]; 333.15 K, Metastable liquid): 1062.6 ± 2.3 kg/m3; mass density ([1]; 338.15 K, Metastable liquid): 1059.87 ± 2.3 kg/m3; mass density ([1]; 343.15 K, Liquid): 1057.15 ± 2.3 kg/m3; mass density ([1]; 348.15 K, Liquid): 1054.42 ± 2.3 kg/m3; mass density ([1]; 353.15 K, Liquid): 1051.69 ± 2.3 kg/m3
CCCCn1cc[n+](C)c1.[Cl-] [1-butyl-3-methylimidazolium chloride] + c1ccncc1	–	–	–	–	–	–	–	–	–	–	–	mass density ([2]; 303.15 K, x1 = 1): 1079.41 ± 2.3 kg/m3; mass density ([2]; 308.15 K, x1 = 1): 1076.58 ± 2.3 kg/m3; mass density ([2]; 313.15 K, x1 = 1): 1073.78 ± 2.3 kg/m3; mass density ([2]; 318.15 K, x1 = 1): 1070.99 ± 2.3 kg/m3; mass density ([2]; 323.15 K, x1 = 1): 1068.19 ± 2.3 kg/m3; mass density ([2]; 328.15 K, x1 = 1): 1065.36 ± 2.3 kg/m3; mass density ([2]; 333.15 K, x1 = 1): 1062.6 ± 2.3 kg/m3; mass density ([2]; 338.15 K, x1 = 1): 1059.87 ± 2.3 kg/m3; mass density ([2]; 343.15 K, x1 = 1): 1057.15 ± 2.3 kg/m3; mass density ([2]; 348.15 K, x1 = 1): 1054.42 ± 2.3 kg/m3; mass density ([2]; 353.15 K, x1 = 1): 1051.69 ± 2.3 kg/m3
CC(=O)N(C)C [N,N-dimethylethanamide] + CCCCn1cc[n+](C)c1.[Cl-]	931.85 ± 2	927.26 ± 2	922.66 ± 2	918.06 ± 2	913.44 ± 1.9	908.81 ± 1.9	904.16 ± 1.9	899.53 ± 1.9	894.87 ± 1.9	890.19 ± 1.9	885.51 ± 1.9	–
C[S+](C)[O-] [dimethyl sulfoxide] + CCCCn1cc[n+](C)c1.[Cl-]	1090.29 ± 2.2	1085.28 ± 2.2	1080.3 ± 2.2	1075.31 ± 2.2	1070.32 ± 2.2	1065.33 ± 2.1	1060.34 ± 2.1	1055.34 ± 2.1	1050.35 ± 2.1	1045.34 ± 2.1	1040.33 ± 2.1	–
CN(C)C=O [dimethylformamide] + CCCCn1cc[n+](C)c1.[Cl-]	939.18 ± 1.9	934.41 ± 1.9	929.64 ± 1.9	924.86 ± 1.9	920.07 ± 1.9	915.26 ± 1.8	910.44 ± 1.8	905.6 ± 1.8	900.74 ± 1.8	895.87 ± 1.8	890.98 ± 1.8	–
